Source: PMC6470885 (Molecules, 2019)
Residues, ends and D or L forms follow the SMILES beside them.

How the values were obtained:
Type in all cases: cell-based
[1] = tested on: HIV-1 NL4-3 D36G (WT); conditions: p24 ELISA, mean ± SD of three independent experiments
Experimental: (§1) Inhibitory activities of peptides on infection by HIV-1 X4 strain IIIB, R5 strain Bal, and T20-, T2635-, HP23-resistant strains were determined as previously described [42]. For each well of a 96-well plate, 50 μL of a peptide were mixed with 50 μL of 100 × TCID50 (50% tissue culture infective doses) of HIV-1 live virus and incubated at 37 °C for 30 min. Afterwards, 2 × 10^4 MT-2 (for X4 virus) or CEMx174 5.25 M7 cells (for R5 virus) were added. After overnight culture, the supernatant was replaced with fresh RPMI-1640 medium containing 10% fetal bovine serum (FBS). After further culture at 37 °C for three days, 50 μL of the culture medium were collected and mixed with equal volume of 5% (v/v) Triton X-100. The p24 antigen, which represents HIV-1 quantity, was detected by ELISA. Briefly, the collected mixtures were added to a plate coated with anti-HIV Immune Globulin (HIVIG) from the NIH AIDS Reagent Program. Anti-p24 mAb 183, rabbit anti-mouse IgG-HRP (Dako, Glostrup, Denmark) and substrate 3,3,5,5-TMB (Sigma-Aldrich, New York, NY) were added and washed away sequentially. The absorbance at 450 nm (A450) was determined by a Multi-Detection Microplate Reader (Ultra 384, Tecan, Tokyo, Japan). IC50s were calculated using Calcusyn software (Biosoft, Ferguson, MO), and the lines of best fit were drawn using GraphPad Prism 8 software (La Jolla, CA).

[2] = tested on: HIV-1 NL4-3 (D36G) V38A; conditions: T20-resistant (D36G) V38A; p24 ELISA; mean ± SD of three independent experiments
Experimental: (§2) For each well of a 96-well plate, 50 μL of a peptide were mixed with 50 μL of 100 × TCID50 (50% tissue culture infective doses) of HIV-1 live virus and incubated at 37 °C for 30 min. Afterwards, 2 × 10^4 MT-2 (for X4 virus) or CEMx174 5.25 M7 cells (for R5 virus) were added. After overnight culture, the supernatant was replaced with fresh RPMI-1640 medium containing 10% fetal bovine serum (FBS). After further culture at 37 °C for three days, 50 μL of the culture medium were collected and mixed with equal volume of 5% (v/v) Triton X-100. The p24 antigen, which represents HIV-1 quantity, was detected by ELISA. Briefly, the collected mixtures were added to a plate coated with anti-HIV Immune Globulin (HIVIG) from the NIH AIDS Reagent Program. Anti-p24 mAb 183, rabbit anti-mouse IgG-HRP (Dako, Glostrup, Denmark) and substrate 3,3,5,5-TMB (Sigma-Aldrich, New York, NY) were added and washed away sequentially. The absorbance at 450 nm (A450) was determined by a Multi-Detection Microplate Reader (Ultra 384, Tecan, Tokyo, Japan). IC50s were calculated using Calcusyn software (Biosoft, Ferguson, MO), and the lines of best fit were drawn using GraphPad Prism 8 software (La Jolla, CA).

[3] = tested on: HIV-1 NL4-3 (D36G) V38A, N42D; conditions: T20-resistant (D36G) V38A, p24 ELISA, mean ± SD of three independent experiments
Experimental: as §2

[4] = tested on: HIV-1 NL4-3 (D36G) V38E, N42S; conditions: T20-resistant (D36G) V38E, p24 ELISA, mean ± SD of three independent experiments
Experimental: as §1

[5] = tested on: HIV-1 NL4-3 (D36G) V38A, N42T; conditions: T20-resistant (D36G) V38A, p24 ELISA, mean ± SD of three independent experiments
Experimental: as §1

[6] = tested on: HIV-1 NL4-3 (D36G) N42T, N43K; conditions: T20-resistant (D36G) N42T, p24 ELISA, mean ± SD of three independent experiments
Experimental: as §1

[7] = tested on: HIV-1 LAI (WT); conditions: p24 ELISA, mean ± SD of three independent experiments
[8] = tested on: HIV-1 LAI A6V; conditions: T2635-resistant A6V; p24 ELISA; mean ± SD of three independent experiments
Experimental: as §1

[9] = tested on: HIV-1 LAI Q66R; conditions: T2635-resistant Q66R; p24 ELISA; mean ± SD of three independent experiments
Experimental: as §1

[10] = tested on: HIV-1 LAI K90E; conditions: T2635-resistant K90E; p24 ELISA; mean ± SD of three independent experiments
Experimental: as §1

[11] = tested on: HIV-1 LAI K154Q; conditions: T2635-resistant K154Q; p24 ELISA; mean ± SD of three independent experiments
Experimental: as §1

[12] = tested on: HIV-1 LAI Q79E/N126K; conditions: T2635-resistant Q79E/N126K; p24 ELISA; mean ± SD of three independent experiments
Experimental: as §1

[13] = tested on: HIV-1 LAI K90E/N126K; conditions: T2635-resistant K90E/N126K; p24 ELISA; mean ± SD of three independent experiments
Experimental: as §1

[14] = tested on: HIV-1 NL4-3 (WT); conditions: p24 ELISA, mean ± SD of three independent experiments
Experimental: as §1

[15] = tested on: HIV-1 NL4-3 E49K; conditions: HP23-resistant E49K; p24 ELISA; mean ± SD of three independent experiments
Experimental: as §1

[16] = tested on: HIV-1 NL4-3 E49K/N126K; conditions: HP23-resistant E49K/N126K; p24 ELISA; mean ± SD of three independent experiments
Experimental: as §1

[17] = tested on: HIV-1 NL4-3 D36G/E49K/N126K; conditions: HP23-resistant D36G/E49K/N126K; p24 ELISA; mean ± SD of three independent experiments
Experimental: as §1

[18] = tested on: HIV-1 NL4-3 L34S/D36G/E49K/E136G; conditions: HP23-resistant L34S/D36G/E49K/E136G; p24 ELISA; mean ± SD of three independent experiments
Experimental: as §1

[19] = tested on: cell-cell fusion between H9/IIIB cells and MT-2 cells; test: HIV-1-mediated cell-cell fusion (dye transfer assay); conditions: Calcein AM dye transfer; peptide 37 °C 30 min, then MT-2 cells 2 h; read-out: IC50 against cell-cell fusion between H9/IIIB cells and MT-2 cells
Experimental: A dye transfer assay was performed to detect HIV-1 Env-mediated cell-cell fusion as described previously. Briefly, for each well of a 96-well plate, 2 × 10^3 H9/IIIB cells labeled with the fluorescent reagent Calcein AM (Molecular Probes, Inc., Eugene, Oregon) were incubated with a CHR-peptide at 37 °C for 30 min. Afterwards, 10^4 MT-2 cells were added and incubated at 37 °C for 2 h. The fused and unfused Calcein-labeled H9/IIIB cells were counted under an inverted fluorescence microscope (Zeiss, Oberkochen, Germany). The IC50 values were calculated by using the Calcusyn computer program (Biosoft, Ferguson, MO).

[20] = tested on: HIV-1IIIB (X4 virus)
Experimental: To determine whether a peptide binds with the target cells in order to execute its anti-HIV-1 activity, cell wash and nonwash assays were performed as previously described. Briefly, 2 × 10^4 MT-2 cells were incubated with a peptide at 4 °C for 30 min, followed by washes of the pretreated cells to remove the unbound peptide (control: without washes) before addition of HIV-1IIIB (100 × TCID50). After culture at 37 °C overnight, the supernatant was replaced by fresh RPMI-1640 medium containing 10% FBS. The inhibitory activity of the cell-bound peptide in the wash group and free peptide in the nonwash group was determined as described above.

CC[C@H](C)[C@H](NC(=O)[C@H](CCC(N)=O)NC(=O)[C@H](CCC(N)=O)NC(=O)[C@H](CC(N)=O)NC(=O)[C@H](CCC(N)=O)NC(=O)[C@H](CO)NC(=O)[C@H](CCCCN)NC(=O)[C@H](CCCCN)NC(=O)[C@H](CC(C)C)NC(=O)[C@@H](NC(=O)[C@H](CCC(=O)O)NC(=O)[C@H](CCC(=O)O)NC(=O)[C@@H](NC(=O)[C@H](CCCCN)NC(=O)[C@H](CCCCN)NC(=O)[C@@H](NC(=O)[C@H](Cc1ccc(O)cc1)NC(=O)[C@H](CCC(=O)O)NC(=O)[C@H](CCC(=O)O)NC(=O)[C@@H](NC(=O)[C@H](CCCCN)NC(=O)[C@H](CCCCN)NC(=O)[C@H](CCC(=O)O)NC(=O)[C@H](Cc1c[nH]c2ccccc12)NC(=O)[C@H](CCC(=O)O)NC(=O)[C@H](CCC(=O)O)NC(=O)[C@H](Cc1c[nH]c2ccccc12)NC(=O)[C@@H](NC(=O)[C@H](CCSC)NC(=O)[C@@H](N)CCC(=O)O)[C@@H](C)O)[C@@H](C)CC)[C@@H](C)O)[C@@H](C)CC)[C@@H](C)CC)C(=O)N[C@@H](CC(=O)O)C(=O)N[C@@H](CC(C)C)C(=O)O [HP23-E6-IDL] (H-EMTWEEWEKKIEEYTKKIEEILKKSQNQQIDL-OH)
IC50 [1]: 0.912 ± 0.029 nM
IC50 [2]: 0.647 ± 0.024 nM
IC50 [3]: 1.54 ± 0.253 nM
IC50 [4]: 0.748 ± 0.012 nM
IC50 [5]: 0.838 ± 0.031 nM
IC50 [6]: 0.941 ± 0.019 nM
IC50 [7]: 0.932 ± 0.059 nM
IC50 [8]: 0.349 ± 0.019 nM
IC50 [9]: 0.496 ± 0.168 nM
IC50 [10]: 1.42 ± 0.242 nM
IC50 [11]: 1.25 ± 0.249 nM
IC50 [12]: 1.31 ± 0.059 nM
IC50 [13]: 0.842 ± 0.066 nM
IC50 [14]: 0.699 ± 0.025 nM
IC50 [15]: 2.04 ± 0.126 nM
IC50 [16]: 2.56 ± 0.318 nM
IC50 [17]: 3.14 ± 0.4 nM
IC50 [18]: 4.94 ± 1.1 nM
IC50 [19]: 1.14 nM
IC50 [20]: 2.4 nM
